From patent US20230322715A1, “BROAD SPECTRUM ANTI-CANCER COMPOUNDS” (The Regents of the University of California, priority 2019, published 2023)
Where “and” joins values, the source holds several entries; their conditions need not be identical. Equal entries are not always repeated. Where two headings read alike, the source gives them in different places.

Legend:
[1] = system: cancer cells by cancer type; conditions: read-out: EC50 of Chemo SOC, cited from earlier work
[2] = molecular target: YTHDF1 (Homo sapiens (Human), UniProt Q9BYJ9); experiment: In vitro FRET assay for binding affinities of YTH inhibitors, YTHDF1
YTHDF1, sequence (Q9BYJ9 whole entry): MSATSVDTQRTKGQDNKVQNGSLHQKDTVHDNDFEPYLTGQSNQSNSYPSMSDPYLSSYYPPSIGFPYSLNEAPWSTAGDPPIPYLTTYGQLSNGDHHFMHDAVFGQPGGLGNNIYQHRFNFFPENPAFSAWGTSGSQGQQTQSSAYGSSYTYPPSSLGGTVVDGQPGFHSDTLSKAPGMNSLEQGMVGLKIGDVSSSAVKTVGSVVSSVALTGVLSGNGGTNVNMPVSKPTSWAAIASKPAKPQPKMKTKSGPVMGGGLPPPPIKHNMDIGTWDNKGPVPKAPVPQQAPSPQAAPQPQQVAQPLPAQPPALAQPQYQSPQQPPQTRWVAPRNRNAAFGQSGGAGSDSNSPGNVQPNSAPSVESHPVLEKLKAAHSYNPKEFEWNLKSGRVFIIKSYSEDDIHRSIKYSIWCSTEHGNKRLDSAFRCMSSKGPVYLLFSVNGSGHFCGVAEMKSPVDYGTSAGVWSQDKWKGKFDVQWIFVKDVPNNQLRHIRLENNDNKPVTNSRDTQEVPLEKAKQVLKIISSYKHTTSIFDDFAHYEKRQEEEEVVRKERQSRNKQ
Description: (§1) FIG. 8-2 depicts possible design and synthesis of compound libraries. In Vitro FRET assay development could yield a high throughput FRET assay to determine binding affinities for potential YHT inhibitors against YTHDF1, YTHDF2, YTHDF3, or other similar proteins.

[3] = molecular target: YTHDF2 (Homo sapiens (Human), UniProt Q9Y5A9); experiment: In vitro FRET assay for binding affinities of YTH inhibitors, YTHDF2
YTHDF2, sequence (Q9Y5A9 whole entry): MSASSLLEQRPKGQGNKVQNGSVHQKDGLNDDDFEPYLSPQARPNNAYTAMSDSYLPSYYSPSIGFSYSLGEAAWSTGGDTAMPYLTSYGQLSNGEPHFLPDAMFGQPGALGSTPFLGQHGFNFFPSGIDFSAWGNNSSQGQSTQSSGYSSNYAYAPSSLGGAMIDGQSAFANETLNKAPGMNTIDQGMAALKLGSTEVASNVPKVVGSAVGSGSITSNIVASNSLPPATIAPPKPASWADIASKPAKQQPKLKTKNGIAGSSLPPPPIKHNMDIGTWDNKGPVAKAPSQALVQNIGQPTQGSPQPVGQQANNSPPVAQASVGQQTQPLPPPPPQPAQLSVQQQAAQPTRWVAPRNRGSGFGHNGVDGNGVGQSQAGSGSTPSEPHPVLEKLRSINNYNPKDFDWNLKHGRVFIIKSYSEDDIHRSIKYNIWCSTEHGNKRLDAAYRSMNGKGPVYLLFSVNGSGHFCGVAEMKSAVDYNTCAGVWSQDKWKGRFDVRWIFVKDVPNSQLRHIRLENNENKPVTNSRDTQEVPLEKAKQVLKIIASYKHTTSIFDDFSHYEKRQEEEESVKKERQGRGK
Description: as §1

[4] = molecular target: FTO (Homo sapiens (Human), UniProt Q9C0B1); experiment: Fluorescence enzymatic inhibition assay (m6A7-Broccoli RNA / DFHBI-1T) against FTO; format: biochemical; conditions: for selectivity between FTO and ALKBH5: comparison of enzymatic IC50 values; for IC50: read-out: Enzymatic IC50 FTO; for precipitation in assay buffer: dose response could not be determined
FTO, sequence (Q9C0B1 whole entry): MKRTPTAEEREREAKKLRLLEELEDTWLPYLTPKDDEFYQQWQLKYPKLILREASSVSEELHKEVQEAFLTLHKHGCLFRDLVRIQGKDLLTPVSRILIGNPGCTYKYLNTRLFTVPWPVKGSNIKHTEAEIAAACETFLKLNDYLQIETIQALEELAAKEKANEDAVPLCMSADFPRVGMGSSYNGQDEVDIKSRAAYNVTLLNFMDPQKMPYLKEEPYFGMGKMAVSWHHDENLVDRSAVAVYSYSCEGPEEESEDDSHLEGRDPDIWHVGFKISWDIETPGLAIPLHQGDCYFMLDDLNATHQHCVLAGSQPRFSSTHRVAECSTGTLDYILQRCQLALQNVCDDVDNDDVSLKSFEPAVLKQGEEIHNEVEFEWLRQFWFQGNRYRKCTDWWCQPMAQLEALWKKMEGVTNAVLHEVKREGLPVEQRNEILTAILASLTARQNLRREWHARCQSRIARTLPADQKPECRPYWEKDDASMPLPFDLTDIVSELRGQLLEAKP
Protocol: In order to determine their efficacy as FTO inhibitors, the compounds were screened by a fluorescence enzymatic inhibition assay developed previously by the Jaffrey lab.^44 Briefly, a nonfluorescent methylated RNA substrate termed “m6A7-Broccoli” is incubated with FTO in the presence of 2-oxoglutarate (300 μM), (NH4)2Fe(SO4)2·6H2O (300 μM), and L-ascorbate (2 mM) for 2 hours at room temperature in reaction buffer (50 mM NaHEPES, pH 6).
(§2) Inhibitors were added in concentrations ranging from 0.008-40 μM; all inhibitors were dissolved in DMSO and added to a final concentration of 0.2% DMSO. […] After incubation at room temperature for 2 hours, the plates were left at 4° C. overnight (16 hours) to allow DFHBI-1T to bind to A7-Broccoli RNA. […] Sigmoidal dose-response curves were fitted in GraphPad Prism 6. All assays were performed in triplicate, with additional repetitions added as necessary.

[5] = molecular target: ALKBH5 (Homo sapiens (Human), UniProt Q6P6C2); experiment: Fluorescence enzymatic inhibition assay (m6A7-Broccoli RNA / DFHBI-1T) against ALKBH5; format: biochemical; conditions: for IC50: read-out: Enzymatic IC50 ALKBH5
ALKBH5, sequence (Q6P6C2 whole entry): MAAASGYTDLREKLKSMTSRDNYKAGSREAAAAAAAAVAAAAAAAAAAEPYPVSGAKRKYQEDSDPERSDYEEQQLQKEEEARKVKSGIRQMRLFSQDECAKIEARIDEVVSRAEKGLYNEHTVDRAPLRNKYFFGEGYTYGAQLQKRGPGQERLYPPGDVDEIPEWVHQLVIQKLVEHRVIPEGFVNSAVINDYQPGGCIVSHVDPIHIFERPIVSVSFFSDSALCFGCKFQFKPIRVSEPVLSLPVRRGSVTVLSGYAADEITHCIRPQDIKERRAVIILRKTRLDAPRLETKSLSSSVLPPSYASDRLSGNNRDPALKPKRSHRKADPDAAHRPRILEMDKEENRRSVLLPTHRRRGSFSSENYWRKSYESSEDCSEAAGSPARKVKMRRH
Protocol: as §2

[6] = elogD / log D determination; conditions: Table 700 compounds
[7] = Ki values for YTH library against YTHDF2, read-out: Ki
[8] = m6A7-Broccoli fluorescence assay, 0.250 μM FTO, inhibitor up to 40 μM, triplicate
[9] = m6A7-Broccoli fluorescence assay, 0.250 μM ALKBH5
[10] = ALK series, permeability data and IC50 tables

Ki ([2]; read-out: Ki (pM) YTHDF1) [pM] | Ki ([2]; read-out: Ki YTHDF1) [pM] | Ki [3, 7] [pM] | Ki ([3]; read-out: Ki (pM) YTHDF2) [pM] | Ki ([3]; read-out: Ki YTHDF2) [pM] | melting point [°C] | SMILES | further results
 |  |  |  |  |  | Nc1ccn([C@@H]2O[C@H](CO)[C@@H](O)C2(F)F)c(=O)n1 [gemcitabine] | EC50 ([1]; Pancreatic): < 1000 nM
615 ± 107 | 615 ± 107 | 106 ± 26 | 106 ± 26 | 106 ± 26 |  | CN(Cc1ccc(C(F)(F)F)cc1)c1ccc(CNC2CC2)cn1 [TR-YTH-10] | 
285 | 285 ± 154 | 395 ± 51 | 395 ± 51 | 395 ± 51 |  | Fc1ccc(CNc2ccc(CNC3CC3)cn2)cc1F [TR-YTH-06] | 
236 ± 51 | 236 ± 51 | 145 ± 33 | 145 ± 33 | 145 ± 33 |  | Fc1ccnc(Nc2ccc(CNC3CC3)cn2)c1 [TR-YTH-15] | 
 |  |  |  |  | 230 | Nc1ncc(-c2cccc(OCc3ccccc3)c2)cn1 [FTO-13, 5-(3-(benzyloxy)phenyl)pyrimidin-2-amine] | selectivity between FTO and ALKBH5 [4]: distinct preference towards ALKBH5 over FTO; IC50 [4, 8]: 36700 nM; IC50 [5, 9]: 14900 nM
 |  |  |  |  | 230 | Cc1ccc2cc(-c3cnc(N)nc3)ccc2n1 [FTO-14, 5-(2-methylquinolin-6-yl)pyrimidin-2-amine] | IC50 [4, 8]: 59600 nM
162 ± 30 | 162 ± 30 | 77 ± 18 | 77 ± 18 | 77 ± 18 |  | FC(F)(F)c1ccc(CNc2ccc(CNC3CC3)cn2)cc1 [TR-YTH-07] | 
 |  |  |  |  |  | O=C(c1cc(Cc2n[nH]c(=O)c3ccccc23)ccc1F)N1CCN(C(=O)C2CC2)CC1 [Olaparib] | EC50 ([1]; Breast): 30000 nM
 |  |  |  |  | 230 | Oc1ccc2cc(-c3cncnc3)ccc2c1 [FTO-1, 6-(pyrimidin-5-yl)naphthalen-2-ol] | IC50 [4, 8]: 41700 nM; inhibition of ALKBH5 at the highest concentration measured [5]: no measurable inhibition; IC50 [5, 9]: > 40000 nM
 |  |  |  |  |  | O=C1[O][Pt]2([NH][C@@H]3CCCC[C@H]3[NH]2)[O]C1=O [oxalplatin, oxaliplatin] | EC50 ([1]; Colon): 2000 to 20000 nM; EC50 ([1]; Esophagoel): 37000 nM; EC50 ([1]; Pancreatic): 3500 to 10000 nM
229 ± 57 | 229 ± 57 | 182 ± 69 | 182 ± 69 | 182 ± 69 |  | COc1ccc(CNc2ccc(CNC3CC3)cn2)c(OC)c1 [TR-YTH-02] | 
 |  |  |  |  |  | O=c1[nH]cc(F)c(=O)[nH]1 [5FU, fluorouracil] | EC50 ([1]; Colon): 2000 to 10000 nM; EC50 ([1]; Gastric): 28800 nM
129 ± 6 | 129 ± 6 | 100 ± 34 | 100 ± 34 | 100 ± 34 |  | CC(Nc1ccc(CNC2CC2)cn1)c1ccccc1 (stereo not shown) [TR-YTH-04] | 
 |  |  |  |  | 230 | Cc1ccc2cc(-c3cncnc3)ccc2n1 [FTO-7, 2-methyl-6-(pyrimidin-5-yl)quinoline] | IC50 [4, 8]: 29100 nM; inhibition of ALKBH5 at the highest concentration measured [5]: no measurable inhibition; IC50 [5, 9]: > 40000 nM
 |  |  |  |  | 230 | COc1ncc(-c2cccc(OCc3ccccc3)c2)cn1 [FTO-3, 5-(3-(benzyloxy)phenyl)-2-methoxypyrimidine] | precipitation in assay buffer [4]: significant precipitation
 |  |  |  |  | 230 | COCCNc1ncc(-c2ccc3cc(OC)ccc3c2)cn1 [FTO-15, N-(2-methoxyethyl)-5-(6-methoxynaphthalen-2-yl)pyrimidin-2-amine] | precipitation in assay buffer [4]: significant precipitation
214 ± 50 | 214 ± 50 | 179 ± 36 | 179 ± 36 | 179 ± 36 |  | COc1ccc(CNc2ccc(CN(C)C)cn2)cc1 [TR-YTH-16] | 
 |  |  |  |  | 230 | COCCNc1ncc(-c2ccc(OCc3ccccc3)cc2)cn1 [FTO-18, 5-(4-(benzyloxy)phenyl)-N-(2-methoxyethyl)pyrimidin-2-amine] | inhibition of ALKBH5 at the highest concentration measured [5]: no measurable inhibition; IC50 [5, 9]: > 40000 nM

Ki ([2]; read-out: Ki (pM) YTHDF1) [pM] | Ki ([2]; read-out: Ki YTHDF1) [pM] | Ki [3, 7] [pM] | Ki ([3]; read-out: Ki (pM) YTHDF2) [pM] | Ki ([3]; read-out: Ki YTHDF2) [pM] | melting point [°C] | SMILES | further results
123 ± 6 | 123 ± 6 | 85 ± 26 | 85 ± 26 | 85 ± 26 |  | COc1ccc(CNc2ccc(CNC3CC3)cn2)cc1OC [TR-YTH-03] | 
 |  |  |  |  |  | Nc1ccn([C@@H]2O[C@H](CO)[C@@H](O)[C@@H]2O)c(=O)n1 [Cytarabine] | EC50 ([1]; Leukemia): 250 to 3500 nM
1420 ± 375 | 1420 ± 375 | 850 ± 115 | 850 ± 115 | 850 ± 115 |  | Cc1ccc(Nc2ccc(CNC3CC3)cn2)cc1C [TR-YTH-12] | 
880 ± 194 | 880 ± 194 |  |  |  |  | Fc1ccc(CNc2ccc(CNC3CC3)cn2)cc1 [TR-YTH-08] | 
 |  |  |  |  | 230 | COc1ccc2cc(-c3cnc(OC)nc3)ccc2c1 [FTO-8, 2-methoxy-5-(6-methoxynaphthalen-2-yl)pyrimidine] | selectivity between FTO and ALKBH5 [4]: equivalent inhibitors towards both demethylases; IC50 [5, 9]: 16400 nM
 |  |  |  |  | 230 | COCCNc1ncc(-c2ccc3nc(C)ccc3c2)cn1 [FTO-19, N-(2-methoxyethyl)-5-(2-methylquinolin-6-yl)pyrimidin-2-amine] | selectivity between FTO and ALKBH5 [4]: equivalent inhibitors towards both demethylases; IC50 [4, 8]: 25200 nM; IC50 [5, 9]: 53500 nM
90 ± 10 | 90 ± 10 | 70 ± 12 | 70 ± 12 | 70 ± 12 |  | c1cncc(CNc2ccc(CNC3CC3)cn2)c1 [TR-YTH-05] | 
 |  |  |  |  |  | CS(=O)(=O)CCNCc1ccc(-c2ccc3ncnc(Nc4ccc(OCc5cccc(F)c5)c(Cl)c4)c3c2)o1 [lapatinib] | EC50 ([1]; Breast): 137000 nM
209 ± 27 | 209 ± 27 | 95 ± 13 | 95 ± 13 | 95 ± 13 |  | CC(Nc1ccc(CN(C)C)cn1)c1ccccc1 (stereo not shown) [TR-YTH-18] | 
164 ± 21 | 164 ± 21 | 102 ± 15 | 102 ± 15 | 102 ± 15 |  | COc1ccc(CNc2ccc(CNC3CC3)cn2)cc1 [TR-YTH-01] | 
 |  |  |  |  | 230 | COCCNc1ncc(-c2ccc3ccc(O)cc3c2)cn1 [FTO-17, 7-(2-((2-methoxyethyl)amino)pyrimidin-5-yl)naphthalen-2-ol] | IC50 [4, 8]: 51900 nM
 |  |  |  |  |  | COC(=O)C1COC(c2ccc(-c3ccccc3)o2)N1 (stereo not shown) [ALK-18] | elogD [6]: 0.73; IC50 ([4]; Table 700 compounds): 14200 ± 3100 nM; IC50 [5, 10]: 5400 ± 1400 nM; IC50 ([5]; Table 700 compounds): 5400 ± 700 nM
 |  |  |  |  |  | COC(=O)C1COC(c2ccccc2O)N1 (stereo not shown) [ALK-16] | elogD [6]: 1.44; IC50 ([4]; Table 700 compounds): > 40000 nM; IC50 [5, 10]: 8200 ± 2300 nM; IC50 ([5]; Table 700 compounds): 8200 ± 2300 nM
 |  |  |  |  | 230 | COCCNc1ncc(-c2ccc3cc(O)ccc3c2)cn1 [FTO-16, 6-(2-((2-methoxyethyl)amino)pyrimidin-5-yl)naphthalen-2-ol] | IC50 [4, 8]: 46500 nM
281 ± 9 | 281 ± 9 | 172 ± 49 | 172 ± 49 | 172 ± 49 |  | Fc1cccc(F)c1CNc1ccc(CNC2CC2)cn1 [TR-YTH-09] | 
 |  |  |  |  |  | N.N.[Cl][Pt][Cl] [cisplatin] | EC50 ([1]; Breast): 5000 nM; EC50 ([1]; Esophagoel): 8000 nM; EC50 ([1]; Gastric): 13500 to 25000 nM; EC50 ([1]; Ovarian): 2000 to 40000 nM; EC50 ([1]; Pancreatic): 20000 to 26000 nM
391 ± 66 | 391 ± 66 | 107 ± 19 | 107 ± 19 | 107 ± 19 |  | CN(C)Cc1ccc(NCc2ccc(F)cc2)nc1 [TR-YTH-19] | 

SMILES | Ki ([2]; read-out: Ki (pM) YTHDF1) [pM] | Ki ([2]; read-out: Ki YTHDF1) [pM] | Ki [3, 7] [pM] | Ki ([3]; read-out: Ki (pM) YTHDF2) [pM] | Ki ([3]; read-out: Ki YTHDF2) [pM] | melting point [°C] | further results
COc1ccc2cc(-c3cncnc3)ccc2c1 [FTO-5, 5-(6-methoxynaphthalen-2-yl)pyrimidine] |  |  |  |  |  | 230 | selectivity between FTO and ALKBH5 [4]: five-fold or higher; IC50 [4, 8]: 13400 ± 2300 nM; inhibition of ALKBH5 at the highest concentration measured [5]: no measurable inhibition; IC50 [5, 9]: > 40000 nM
COc1ncc(-c2ccc(CO)c(OC)c2)cn1 [FTO-6, (2-methoxy-4-(2-methoxypyrimidin-5-yl)phenyl)methanol] |  |  |  |  |  | 230 | selectivity between FTO and ALKBH5 [4]: five-fold or higher; IC50 [4, 8]: 13800 ± 2400 nM
COCCNc1ncc(-c2ccc(CO)c(OC)c2)cn1 [FTO-20, (2-methoxy-4-(2-((2-methoxyethyl)amino)pyrimidin-5-yl)phenyl)methanol] |  |  |  |  |  | 230 | selectivity between FTO and ALKBH5 [4]: five-fold or higher; IC50 [4, 8]: 17200 ± 2900 nM; IC50 [5, 9]: 90200 ± 7800 nM
Nc1ncc(-c2cccc(Nc3ccccc3)c2)cn1 [FTO-9, 5-(3-(phenylamino)phenyl)pyrimidin-2-amine] |  |  |  |  |  | 230 | selectivity between FTO and ALKBH5 [4]: distinct preference towards ALKBH5 over FTO; IC50 [4, 8]: > 40000 nM and 43800 nM; IC50 [5, 9]: 5200 nM
